Laboratory results: patent publication US20260102407A1, “TREATMENT METHODS” (priority 2020, published 2026)

Legend:
c-Fos = experiment: Western blot, serum-inducible c-Fos expression in HMEC-1; type: cell-based, human; conditions: 30 μM compound, 10% FBS 1 h
Method: Western blot analysis with extracts of cells treated with serum. HMEC-1 (80-90% confluency) were arrested in serum-free MCDB131 medium without EGF or hydrocortisone for 20 h. Cells were treated with 30 μM compound in serum-free MCDB131 medium for 4 h, and the medium was changed to complete medium (with 10% FBS with EGF and hydrocortisone) with 30 μM compound for 1 h. Total protein was harvested as previously described in radioimmunoprecipitation (RIPA) lysis buffer with protease inhibitors (Li, Y., et al., Int J Cardiol 220, 185-191 (2016)). Proteins were resolved on 4-20% (w/v) sodium dodecyl sulfate (SDS)-polyacrylamide gradient gels (Bio-Rad Mini-PROTEAN TGX) and transferred to Immobilon-P PVDF membranes (Millipore, USA). Membranes were blocked with 5% skim milk and incubated with rabbit monoclonal FosB (cat. 2251, 1:1000, Cell Signaling, USA), rabbit monoclonal c-Fos antibodies (cat. 2250, 1:1000, Cell Signaling, USA) at 4° C. overnight or mouse monoclonal […] antibodies (cat. A5316, 1:30000, Sigma-Aldrich) at 22° C. for 15 min then incubated with a horseradish peroxidase conjugated secondary goat anti-rabbit (cat. P0448, 1:1000, DAKO Cytomation, Denmark) or goat anti-mouse (cat. P0447, 1:1000, DAKO Cytomation, Denmark) antibodies for 1 h. Chemiluminescence was detected using the Western Lightning Chemiluminescence system (PerkinElmer, USA) and ImageQuant™ LAS 4000 biomolecular imager (GE Healthcare Life Sciences, USA). Band intensity in images generated with the LAS 4000 on automatic exposure with sensitivity/resolution setting high was quantified using NIH ImageJ.

Balb/c mice = experiment: Collagen antibody-induced arthritis (footpad thickness, H&E, micro-CT, TRAP); type: in vivo, mouse; conditions: CAIA mice
Method: Collagen antibody-induced arthritis. Arthritis was induced in female Balb/c mice (6-8 week-old) as previously described with a commercially obtained cocktail of 5 monoclonal antibodies to type II collagen at 2 mg/mouse (Chondrex, Inc. Redmond, WA) followed by LPS (50 μg/mouse) with or without BT2 (3 or 30 mg/kg mouse) in DMSO vehicle was administered i.p. on Day 3. Hind footpad thickness was measured on Day 9 using digital calipers. Mice were sacrificed on Day 14 and microCT scanning of hind limbs was performed.
Micro-CT scanning and analysis. Formalin-ethanol fixed hind limbs were micro-CT scanned prior to histology processing using a Siemens Inveon micro-CT scanner (Victoria, Australia). Data was acquired with the Inveon Acquisition Workplace at 16.84 μm pixel size, 360 projections, 4100 ms integration time, 80 keV photon energy and 140 μA current. 3D models were visualized and snap shots of the limbs acquired with the Inveon Research Workplace software. Data was quantified by binary score where 0=no bone destruction and 1=destruction was given to each individual limb.
Tartrate-resistant acid phosphatase (TRAP) staining. Osteoclasts were stained using TRAP kit (Cosmo Bio, Japan, cat. PMC-AK04F-COS). Sections were heated at 65° C. for 1 h prior dewaxing. Tissue sections were deparaffinised with 100% xylene and rehydrated with 100, 70 and 30% ethanol and rinsed with distilled water for 5 min. Sections were covered with TRAP staining solution containing 3 mg tartaric acid per 50 ml tartaric acid buffer. The sections were incubated at 37° C. for 1 h, then rinsed in distilled water 3 times to halt the reaction. Sections were counterstained with hematoxylin for 5s then washed in running water until clear then dried. Sections were dehydrated with xylene and air-dried then mounted with aqueous permanent mounting medium. Within the synovium on the medial aspect of each animal joint, 6 random areas photographed under 20× objective were selected in the blinded fashion. Numbers of osteoclasts were counted using NIH Image J. Alternatively TRAP staining was quantitated using IOD (Image-Pro Plus).

CCOC(=O)Nc1ccc2c(c1)C(=O)N(CC)c1ccccc1O2 [BT2, (10-ethyl-11-oxo-10,11-dihydro-dibenzo[b,f][1,4]oxazepin-2-yl)-carbamic acid ethyl ester]
serum-inducible c-Fos expression (Western blot) (c-Fos): blocked the inducible expression of c-Fos
TRAP staining in the joints (Balb/c mice; Day 14): reduced TRAP staining
bone destruction (3D micro-CT of hind limbs) (Balb/c mice; Day 14): inhibits bone destruction
inflammation (H&E staining) (Balb/c mice; Day 14): reduced by BT2
hind footpad thickness (Balb/c mice; single administration 30 mg/kg i.p. Day 3, Day 9): inhibited
